The values that follow come from ChEMBL document CHEMBL1201862, “PubChem BioAssay data set” (2004).

Calls of active or inactive are those of the source. A value given as a limit tells only on which side of the number the result lay.

Assay [1] addresses T1, Sentrin-specific protease 8 (Homo sapiens, UniProt Q96LD8).
T1 sequence (Q96LD8 whole entry): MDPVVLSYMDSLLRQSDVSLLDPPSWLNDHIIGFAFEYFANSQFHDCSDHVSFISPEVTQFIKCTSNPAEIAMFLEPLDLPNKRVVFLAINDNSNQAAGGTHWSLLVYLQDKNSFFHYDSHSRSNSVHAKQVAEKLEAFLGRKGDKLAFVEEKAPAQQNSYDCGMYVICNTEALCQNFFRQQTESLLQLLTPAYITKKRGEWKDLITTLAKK
In kind it is functional.

The nature of assay [2]: viability of HCT116 lacking mutant beta-catenin – cell-based, human colon tumor, dose response (AID 1045).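 Note: HCT116 colon tumor cells with beta catenin knocked out; cells exposed to compound for 60 hours.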 Type of assay: functional.
A short description of assay [3]: Luminescence Cell-Based Dose Confirmation HTS to Identify Inhibitors of Platelet Dense Granule Release. [Related pubchem assays: 1663 (Primary HTS), 1678 (Summary of Project)]. In kind it is functional.
Assay [4] is described as follows: alpha-synuclein stem-loop luciferase translation blockers – H4 neuroglioma cells, luminescence, confirmation (AID 1988). Type of assay: functional, cell-based.
For assay [5], the target named is Luciferin 4-monooxygenase (Photinus pyralis, UniProt P08659). Nature of the assay: inhibition of purified Photinus pyralis luciferase – biochemical, luminescence, dose response (AID 1891).
For assay [6], the target named is Type-1 angiotensin II receptor (Homo sapiens, UniProt P30556). Nature of the assay: antagonism of angiotensin II type 1 receptor – cell-based, uHTS hits, selectivity assay for APJ receptor antagonist project, dose response (AID 463214).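 Note: antagonist potency against angiotensin II stimulated AT1 response.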 In kind it is functional.
Assay [7] has as its target T2, Heat shock protein HSP 90-alpha (Homo sapiens, UniProt P07900). Type of assay: functional, organism-based.
Assay [8] can be described thus: Luminescence Cell-Based Dose Response HTS to Identify Inhibitors of 5'UTR Stem-Loop Driven Prion Protein mRNA Translation in H4 Neuroglioblastoma Cells. [Related pubchem assays: 1827 (Project Summary), 1813 (Primary HTS)]. Type of assay: functional.
Assay [9] in a line: viability loss in HeLa cells – cytotoxicity control for MgcRacGAP inhibitor project, dose response (AID 624300). Type of assay: functional.
For a further assay, the target named is Beta Lactamase (Pseudomonas aeruginosa, UniProt Q932Y6). Nature of the assay: BLA reporter interference, concentration series – BLA reporter cells, FRET fluorescence, artefact control for TLR9-MyD88 binding inhibitor project, dose response (AID 588341).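 Note: cell based assay in CHO-K1 cells stably expressing beta-lactamase.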 In kind it is cell-based.
Assay [10] in a line: HEK-293T viability loss after treatment – luminescence, T-cell screen hits, cytotoxicity control for TCR NF-kB inhibitor project, dose response (AID 489026).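 Note: cells exposed to compound about 14 hours before the viability readout.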 In kind it is functional, cell-based.
Assay [11] addresses G2/mitotic-specific cyclin-B1 (Homo sapiens, UniProt P14635). In words: Counterscreen assay for inhibitors of Wee1 degradation: dose response cell-based assay to identify inhibitors of cyclin B degradation. [Related pubchem assays: 1410, 1321 ]. Type of assay: functional. (In general: The purpose of a counterscreen is to sort out artefacts and off-target activity.)
Assay [12] has as its target T3, RNA-binding protein pos-1 (Caenorhabditis elegans, UniProt G5EF15).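 Note: purified POS-1 fused to maltose binding protein made in E. coli; potency of compounds blocking POS-1 binding to fluorescent RNA.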
T3 sequence (G5EF15 whole entry): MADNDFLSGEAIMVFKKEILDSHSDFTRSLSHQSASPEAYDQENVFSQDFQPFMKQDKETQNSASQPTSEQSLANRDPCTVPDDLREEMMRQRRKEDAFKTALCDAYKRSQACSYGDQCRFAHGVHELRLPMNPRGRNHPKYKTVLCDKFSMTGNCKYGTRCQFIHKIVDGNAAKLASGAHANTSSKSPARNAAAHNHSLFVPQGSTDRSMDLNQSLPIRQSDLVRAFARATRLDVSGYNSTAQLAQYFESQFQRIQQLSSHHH
Nature of the assay: disruptors of C. elegans POS-1 RNA interaction – biochemical, fluorescence polarization, dose response (AID 1964). (In general: Fluorescence polarisation rises when a labelled molecule tumbles more slowly, as on binding a larger partner.)

The target of assay [13] is T2, Heat shock protein HSP 90-alpha. Nature of the assay: Luminescence-based dose response biochemical high throughput screening assay for inhibitors of the Heat Shock Protein 90 (HSP90). [Related pubchem assays: 1831 (Summary AID.), 1846 (Confirmation screen.), 1789 (Primary screen.)].
Assay [14] concerns the target T4, Histone-lysine N-methyltransferase NSD2 (Homo sapiens, UniProt O96028).
T4 sequence (O96028 whole entry): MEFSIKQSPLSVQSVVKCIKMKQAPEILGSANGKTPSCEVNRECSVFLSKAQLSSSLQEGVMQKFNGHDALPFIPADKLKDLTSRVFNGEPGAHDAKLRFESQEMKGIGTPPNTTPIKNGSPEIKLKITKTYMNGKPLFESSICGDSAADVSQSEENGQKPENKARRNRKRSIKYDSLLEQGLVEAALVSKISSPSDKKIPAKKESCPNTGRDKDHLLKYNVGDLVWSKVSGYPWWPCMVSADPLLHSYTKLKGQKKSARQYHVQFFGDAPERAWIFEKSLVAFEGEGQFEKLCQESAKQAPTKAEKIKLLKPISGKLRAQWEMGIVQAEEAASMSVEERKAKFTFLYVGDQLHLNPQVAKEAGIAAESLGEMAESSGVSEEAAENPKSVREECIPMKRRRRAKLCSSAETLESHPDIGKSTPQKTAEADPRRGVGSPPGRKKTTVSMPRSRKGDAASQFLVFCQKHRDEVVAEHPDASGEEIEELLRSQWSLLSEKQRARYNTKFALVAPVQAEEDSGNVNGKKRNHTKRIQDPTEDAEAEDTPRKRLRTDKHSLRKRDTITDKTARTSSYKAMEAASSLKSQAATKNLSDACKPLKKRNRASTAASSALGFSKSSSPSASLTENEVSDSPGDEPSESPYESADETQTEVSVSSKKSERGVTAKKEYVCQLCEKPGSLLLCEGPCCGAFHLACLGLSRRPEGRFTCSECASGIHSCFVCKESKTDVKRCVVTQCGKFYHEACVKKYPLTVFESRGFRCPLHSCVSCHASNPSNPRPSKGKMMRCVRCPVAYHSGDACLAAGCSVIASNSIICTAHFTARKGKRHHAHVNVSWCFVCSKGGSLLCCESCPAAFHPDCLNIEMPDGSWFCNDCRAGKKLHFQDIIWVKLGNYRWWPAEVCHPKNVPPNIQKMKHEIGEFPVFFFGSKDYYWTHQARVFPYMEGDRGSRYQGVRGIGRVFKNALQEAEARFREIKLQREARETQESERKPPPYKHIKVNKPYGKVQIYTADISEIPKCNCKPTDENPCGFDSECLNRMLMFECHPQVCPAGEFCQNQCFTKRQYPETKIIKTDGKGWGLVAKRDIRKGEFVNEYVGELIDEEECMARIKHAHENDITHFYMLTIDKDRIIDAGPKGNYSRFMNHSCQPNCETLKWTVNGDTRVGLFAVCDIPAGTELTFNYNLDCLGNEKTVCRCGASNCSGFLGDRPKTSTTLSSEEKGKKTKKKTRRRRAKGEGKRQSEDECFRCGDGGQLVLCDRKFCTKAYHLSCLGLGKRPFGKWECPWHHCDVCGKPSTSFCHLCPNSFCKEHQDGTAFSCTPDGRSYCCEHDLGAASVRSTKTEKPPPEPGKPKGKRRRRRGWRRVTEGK
In kind it is biochemical.

The next assay deals with Beta-galactosidase (Escherichia coli, UniProt Q8VNN2). In words: detection-enzyme interference by beta-gal modulators – biochemical, E. coli enzyme, set 3, artefact control for CCR6 antagonist project, dose response (AID 504712). In kind it is functional.
The subject of the next assay is Vero. Nature of the assay: cells. Type of assay: functional. The note with it: Chlorocebus sabaeus.

G2/mitotic-specific cyclin-B1, sequence (P14635 whole entry, the tested form may be a part): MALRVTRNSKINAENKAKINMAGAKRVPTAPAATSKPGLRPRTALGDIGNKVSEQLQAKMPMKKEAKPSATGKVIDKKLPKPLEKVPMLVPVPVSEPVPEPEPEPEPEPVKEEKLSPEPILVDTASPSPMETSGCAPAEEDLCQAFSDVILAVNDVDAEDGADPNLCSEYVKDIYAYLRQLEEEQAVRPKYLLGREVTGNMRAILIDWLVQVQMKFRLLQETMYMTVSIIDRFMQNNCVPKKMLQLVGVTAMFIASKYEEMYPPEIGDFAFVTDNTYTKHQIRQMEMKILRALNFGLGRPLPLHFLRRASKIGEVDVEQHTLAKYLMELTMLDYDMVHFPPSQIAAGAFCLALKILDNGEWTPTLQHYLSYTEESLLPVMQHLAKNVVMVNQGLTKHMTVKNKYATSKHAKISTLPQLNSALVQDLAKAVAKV
Beta-galactosidase, sequence (Q8VNN2 whole entry): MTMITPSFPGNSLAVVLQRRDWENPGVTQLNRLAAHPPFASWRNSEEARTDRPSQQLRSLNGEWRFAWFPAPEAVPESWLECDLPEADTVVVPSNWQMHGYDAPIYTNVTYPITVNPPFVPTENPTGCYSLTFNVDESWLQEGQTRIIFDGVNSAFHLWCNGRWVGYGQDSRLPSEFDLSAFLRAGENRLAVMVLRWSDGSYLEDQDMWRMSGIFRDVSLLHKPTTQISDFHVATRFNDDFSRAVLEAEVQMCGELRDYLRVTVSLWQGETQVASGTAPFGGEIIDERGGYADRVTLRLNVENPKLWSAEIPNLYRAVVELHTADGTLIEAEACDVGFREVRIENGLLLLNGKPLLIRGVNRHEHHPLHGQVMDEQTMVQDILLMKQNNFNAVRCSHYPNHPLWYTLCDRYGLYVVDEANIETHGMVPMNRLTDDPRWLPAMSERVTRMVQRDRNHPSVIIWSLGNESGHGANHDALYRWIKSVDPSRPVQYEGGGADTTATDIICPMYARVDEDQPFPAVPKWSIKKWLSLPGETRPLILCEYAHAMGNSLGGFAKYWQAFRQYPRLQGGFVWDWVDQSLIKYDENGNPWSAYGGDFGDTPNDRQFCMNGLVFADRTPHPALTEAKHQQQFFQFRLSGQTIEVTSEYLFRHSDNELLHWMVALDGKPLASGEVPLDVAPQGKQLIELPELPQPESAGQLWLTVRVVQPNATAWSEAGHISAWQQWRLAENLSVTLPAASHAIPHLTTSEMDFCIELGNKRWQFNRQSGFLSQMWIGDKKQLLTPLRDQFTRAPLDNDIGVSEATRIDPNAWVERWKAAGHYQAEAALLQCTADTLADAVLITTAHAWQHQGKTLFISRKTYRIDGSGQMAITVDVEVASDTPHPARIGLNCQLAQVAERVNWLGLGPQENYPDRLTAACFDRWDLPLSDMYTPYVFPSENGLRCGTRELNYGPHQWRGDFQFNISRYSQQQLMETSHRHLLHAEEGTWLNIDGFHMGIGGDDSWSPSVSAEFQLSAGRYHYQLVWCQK
Type-1 angiotensin II receptor, sequence (P30556 whole entry): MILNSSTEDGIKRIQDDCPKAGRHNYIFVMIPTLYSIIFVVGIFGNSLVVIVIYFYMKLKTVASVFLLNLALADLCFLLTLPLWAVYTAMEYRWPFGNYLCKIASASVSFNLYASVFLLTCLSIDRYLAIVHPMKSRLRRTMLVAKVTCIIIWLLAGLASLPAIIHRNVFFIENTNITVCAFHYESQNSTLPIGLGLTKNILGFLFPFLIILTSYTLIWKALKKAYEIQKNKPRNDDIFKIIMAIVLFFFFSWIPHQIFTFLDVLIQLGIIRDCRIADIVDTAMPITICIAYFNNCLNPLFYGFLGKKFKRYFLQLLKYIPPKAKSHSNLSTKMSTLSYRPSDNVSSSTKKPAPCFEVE
Luciferin 4-monooxygenase, sequence (P08659 whole entry): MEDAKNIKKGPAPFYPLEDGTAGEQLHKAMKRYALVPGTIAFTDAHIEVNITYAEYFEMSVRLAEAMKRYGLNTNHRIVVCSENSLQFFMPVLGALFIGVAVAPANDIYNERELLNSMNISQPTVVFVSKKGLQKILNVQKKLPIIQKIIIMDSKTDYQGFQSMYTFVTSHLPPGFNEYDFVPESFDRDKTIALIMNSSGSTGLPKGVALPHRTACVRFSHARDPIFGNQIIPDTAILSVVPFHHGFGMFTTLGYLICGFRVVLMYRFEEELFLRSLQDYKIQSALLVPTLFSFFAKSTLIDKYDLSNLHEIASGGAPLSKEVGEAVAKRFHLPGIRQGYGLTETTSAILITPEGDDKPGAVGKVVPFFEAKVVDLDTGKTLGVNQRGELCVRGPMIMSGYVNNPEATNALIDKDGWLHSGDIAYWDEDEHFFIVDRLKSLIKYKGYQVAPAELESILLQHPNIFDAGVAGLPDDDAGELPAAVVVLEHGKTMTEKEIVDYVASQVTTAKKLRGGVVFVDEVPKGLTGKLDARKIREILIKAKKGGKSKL
Beta Lactamase, sequence (Q932Y6 whole entry): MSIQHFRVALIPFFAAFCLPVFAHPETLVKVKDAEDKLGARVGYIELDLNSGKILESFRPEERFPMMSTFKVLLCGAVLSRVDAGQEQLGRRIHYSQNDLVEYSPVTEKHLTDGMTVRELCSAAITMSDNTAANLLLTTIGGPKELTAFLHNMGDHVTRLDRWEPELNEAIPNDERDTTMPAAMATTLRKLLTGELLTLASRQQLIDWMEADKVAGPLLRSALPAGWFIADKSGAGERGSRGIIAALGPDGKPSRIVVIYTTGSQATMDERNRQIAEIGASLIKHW

`Nc1ccc(N2CCCCC2)c2nonc12`: in [1], the IC50 (as a rule, the concentration that inhibits the measured activity by half) is 3.28 µM (active).

For the compound `COc1ccc(NC(=O)/C(Cl)=C(/Cl)[S+]([O-])Cc2ccccc2)cn1` (configuration not stated), the EC50 (as a rule, the midpoint of the concentration-response curve) in assay [2] is 0.185 µM (active); in assay [3] it was 6.34 µM (active); in [4], 4.57 µM (active); in [5], > 112 µM (not active); in assay [8], 0.998 µM (active); in assay [11], > 1.84 µM (active). Also, the IC50 in assay [6] is 3.93 µM (active); on Beta Lactamase it was 16 µM (inactive); in [10], 33 µM (inactive). Moreover, the AC50 – broadly, the midpoint of the concentration-response curve, whichever way the signal moves – in [7] was 2 µM (active). Moreover, the CC50 (usually the concentration at which the toxic effect on the cells reaches its halfway point) in assay [9] was 24.1 µM (active).

Turning to `Cc1ccc(S(=O)(=O)/N=C2\C=C(Nc3cccc(C(=O)O)c3)C(=O)c3ccccc32)c(C)c1`, in assay [12], the EC50 is 68.6 µM (active). For the same compound, the IC50 was 0.919 µM (active) in assay [13] and 43.5 µM (inactive) on Beta-galactosidase. For the same compound, the AC50 in assay [14] was 0.255 µM (active). For the same compound, in the assay on Vero, the CC50 was > 25 µM (active).
